Reference: patent publication US5045558A, “N-substituted imidazoles and their use in pharmaceutical agents” (Schering Aktiengesellschaft, priority 1988, dated 1991)

Tests used:
11beta-hydroxylase = target: T1, 11beta-hydroxylase (Bos taurus, UniProt P15150); assay: Test B: Determination of 11-beta Hydroxylase Activity (mitochondria from bovine suprarenals); type: biochemical; conditions: for IC50: Test B, bovine suprarenal mitochondria, substrate concentration corresponds to apparent Km; for selectivity of aromatase inhibition (in words): aromatase vs other enzyme systems (11beta-hydroxylase), in comparison with compound 1 / compounds known so far
T1 construct: mitochondria, obtained from bovine suprarenals; from tissue; host or cells: bovine suprarenals (adrenal glands), mitochondria
T1 sequence (P15150 25-503): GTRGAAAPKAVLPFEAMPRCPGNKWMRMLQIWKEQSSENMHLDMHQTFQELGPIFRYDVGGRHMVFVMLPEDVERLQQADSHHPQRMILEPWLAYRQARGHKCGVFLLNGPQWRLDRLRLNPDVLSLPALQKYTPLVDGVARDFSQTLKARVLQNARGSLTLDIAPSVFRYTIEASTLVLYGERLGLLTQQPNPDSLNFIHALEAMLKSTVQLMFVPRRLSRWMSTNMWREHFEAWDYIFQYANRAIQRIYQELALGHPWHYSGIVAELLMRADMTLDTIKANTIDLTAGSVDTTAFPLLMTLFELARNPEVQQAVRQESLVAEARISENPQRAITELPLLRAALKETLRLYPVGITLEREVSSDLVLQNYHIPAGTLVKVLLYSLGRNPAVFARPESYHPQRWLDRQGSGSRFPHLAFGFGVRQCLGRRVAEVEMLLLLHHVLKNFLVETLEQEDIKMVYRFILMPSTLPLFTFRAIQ
Procedure: Determination of 11-beta Hydroxylase Activity
The 11beta-hydroxylase activity is measured on mitochondria, obtained from bovine suprarenals. The reaction of [1,2-^3 H]-17alpha-hydroxy-11-deoxycorticosterone in cortisol is determined by thin-film chromatography of the resulting reaction products according to a method of Mitani et al (J. Biol. Chem 250, 8010-15 (1975)). The concentration of the examined compound is determined, in which the reaction is inhibited by 50%, and the substrate concentration corresponds to the apparent Km value.

aromatase = target: T2, aromatase (Homo sapiens, UniProt P11511); assay: Test A: Determination of Aromatase Activity (release of tritium-labeled water, human placenta microsomes); type: biochemical; conditions: for Ki: Test A, human placenta microsomes, Dixon method; for inhibition of aromatase (in words): in comparison with compound 1 / compounds known so far
T2 construct: microsomes obtained from human placenta; from tissue; host or cells: human placenta, microsomes
T2 sequence (P11511 1-503): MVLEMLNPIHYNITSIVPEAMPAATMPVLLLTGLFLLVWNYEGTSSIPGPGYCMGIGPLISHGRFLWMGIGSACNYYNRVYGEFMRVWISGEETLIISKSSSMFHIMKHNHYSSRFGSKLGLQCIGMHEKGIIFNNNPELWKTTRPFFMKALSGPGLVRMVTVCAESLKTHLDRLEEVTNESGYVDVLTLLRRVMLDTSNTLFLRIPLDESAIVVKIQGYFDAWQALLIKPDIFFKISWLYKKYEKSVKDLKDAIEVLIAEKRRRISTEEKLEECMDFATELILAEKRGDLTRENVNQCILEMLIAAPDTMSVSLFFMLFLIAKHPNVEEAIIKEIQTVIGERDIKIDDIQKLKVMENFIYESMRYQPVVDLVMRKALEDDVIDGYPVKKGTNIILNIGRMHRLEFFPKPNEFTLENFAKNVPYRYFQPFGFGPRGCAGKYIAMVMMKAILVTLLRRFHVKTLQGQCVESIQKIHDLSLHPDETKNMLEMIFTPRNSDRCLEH
Procedure: Determination of Aromatase Activity
The capabilities of compounds to inhibit the enzyme system of aromatase is tested on microsomes obtained from human placenta. The release of tritium-labeled water (^3 H2 O), which is released as reaction product in the aromatizing of (1beta-^3 H) androstrenedione to estrogen, is measured according to the methods of Thompson and Siiteri (J. Biol. Chem. Z49, 5364-72 (1974)). The corresponding inhibition values (K1, aromatase) are determined according to the method of Dixon (Biochem. J. 94, 760 (1965) by graphic determination of the application of 1/v against the inhibition concentration.

Row | IC50 (11beta-hydroxylase) [µM] | Ki (aromatase) [µM] | selectivity of aromatase inhibition (in words) (11beta-hydroxylase) | Compound | inhibition of aromatase (in words) (aromatase)
1 | 0.094 | 0.0011 | – | CCCC(c1ccc(C#N)cc1)n1ccnc1 (stereo not shown) [Compound 1, 4-[1-(1-imidazolyl)-butyl]-benzonitrile, reference compound] | –
2 | 1.5 | 0.00042 | more selective effectiveness | CCCCCC(=O)c1ccc(C(CCC)n2ccnc2)cc1 (stereo not shown) [Compound 2, [4-[1-(1-Imidazolyl)-butyl]-phenyl]-pentylketone] | stronger inhibition actions of aromatase than compound 1
3 | 0.75 | 0.00087 | more selective effectiveness | CCCCOC(=O)c1ccc(C(CCC)n2ccnc2)cc1 (stereo not shown) [Compound 3, 4-[1-(1-imidazolyl)-butyl]-benzoic acid butyl ester] | stronger inhibition actions of aromatase than compound 1
